SMILES strings stand for the structures. Where two headings read alike, the source gives them in different places.

For data set [1], the system named is Male CD1 mice. Description: Spontaneous locomotor activity of mice. The format is in vivo. The note with it: i.p.; for Ambulation Scores ± SEM: 60 min, n = 5; for effect on spontaneous locomotor activity in words: all tested doses. How it is done: Mice were placed separately into activity cages for an acclimatization period of 30 min, then they were injected i.p. with compound 15 (0.5, 1, and 3 mg/kg) or compound 18 (0.05, 0.1, 0.5, 1, and 3 mg/kg, respectively. After a further 30 min, they were injected with saline (10 mL/kg). From this point on, the ambulation scores were measured for 60 min. The data are presented as mean ± SEM, n = 5 mice per group. Data were analyzed with one-way ANOVA and Dunnett’s post-hoc. 15: F(3,16) = 1.225, p = 0.333; 18: F(5,24) = 0.791, p = 0.567.
(§1) Animals. Male CD1 mice (Charles River, Germany) weighing 20–25 g at the time of arrival were used in behavioral experiments. Animals were kept under standard laboratory conditions (12:12 light: dark cycle, 22 ± 2 °C) with free access to food and water. Animal welfare has been regularly controlled by a veterinarian and animal welfare committee. After two weeks of acclimatization and handling, the experiments began. Experimental groups consisted of four to 10 animals, depending on the procedure. Drugs were administered intraperitoneally (i.p.) at a volume of 10 mL/kg. Experimental assessments were performed by an observer who was blinded to the treatment conditions. All procedures were conducted in accordance with the European Communities Council Directive of 22 September 2010 (2010/63/EU) and Polish legislation acts concerning animal experimentation and were approved by the II Local Ethics Committee by the Maj Institute of Pharmacology, Polish Academy of Sciences in Krakow (272/2019).
(§2) Drugs. MK-801 was purchased from Tocris Bioscience, Bristol, UK. MK-801 was dissolved in 0.9% NaCl. Compounds 15 and 18 were dissolved in 0.9% NaCl. All compounds were administered intraperitoneally (i.p.) in a volume of 10 mL/kg. Vehicle-treated animals received appropriate solvents. Vehicle was administered to animals in any case when drug administration was omitted (e.g., control or MK-801-treated groups).
The locomotor activity was recorded individually for each animal in the OPTO-M3 locomotor activity cages described above. Each cage was surrounded with an array of photocell beams. […] Mice were placed separately into activity cages for an acclimatization period of 30 min, then were injected i.p. with compound 15 (0.5, 1, 3 mg/kg) compound 18 (0.05, 0.1, 0.5, 1, 3 mg/kg. After a further 30 min, they were injected with saline (10 mL/kg). From this point on, the ambulation scores were measured for 60 min.

Data set [2] concerns the target 5-HT2AR (Homo sapiens, UniProt P28223). The experiment in a line: Radioligand binding assay, [3H]-ketanserin displacement. Set-up: host or cells: CHO-K1; membrane preparation. The note with it: Table 1.
Data set [3] deals with Male CD1 mice. Description: Novel object recognition (NOR) test, MK-801-induced memory impairment. The format is in vivo. Particulars: i.p., MK-801 0.3 mg/kg. The protocol:
as §1, §2
This procedure was adapted from Nilsson et al. (2007) and performed as described in a previous paper by Cieslik et al. (2018). Habituation, training, and test trials were performed in a black plastic rectangular arena (40 × 30 × 35 cm) illuminated with a light intensity of 335 lux. During the habituation trial (two consecutive days), each animal was allowed to explore the arena for 10 min. The next day, during the training trial (T1), mice were placed in the arena and presented with two identical objects (red glass cylinder; 6.5 cm in diameter and 4.5 cm high) for 5 min. After 1 h, animals were placed back into the arena for a 5 min test trial, during which one of the previously presented familiar objects was replaced with a novel object (a transparent glass elongated sphere-like object with an orange cap; 5.5 cm in diameter and 8.5 cm high). Time spent exploring (i.e., sniffing or touching) the familiar (Tfamiliar) and novel (Tnovel) objects was measured by a trained observer, and the recognition index [%] was calculated for each mouse [(Tnovel − Tfamiliar)/(Tfamiliar + Tnovel)] × 100. Compounds were administered 30 min before MK-801 (0.3 mg/kg), which was administered 30 min before training trial.

Data set [4] has as its target T1, 5-HT1AR (Homo sapiens, UniProt P08908).
T1 sequence (P08908 1-422): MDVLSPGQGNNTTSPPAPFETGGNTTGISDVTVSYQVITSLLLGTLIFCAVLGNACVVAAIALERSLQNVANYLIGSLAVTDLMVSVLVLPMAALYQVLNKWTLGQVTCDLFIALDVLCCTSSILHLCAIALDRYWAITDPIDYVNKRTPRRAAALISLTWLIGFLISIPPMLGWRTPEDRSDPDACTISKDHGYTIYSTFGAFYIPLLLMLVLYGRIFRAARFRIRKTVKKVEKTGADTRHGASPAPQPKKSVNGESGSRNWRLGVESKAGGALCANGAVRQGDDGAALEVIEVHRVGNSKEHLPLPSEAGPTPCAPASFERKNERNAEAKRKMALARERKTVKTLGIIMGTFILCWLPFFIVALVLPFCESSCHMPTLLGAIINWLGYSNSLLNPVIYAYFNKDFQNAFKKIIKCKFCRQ
Description: Radioligand binding assay, [3H]-8-OH-DPAT displacement.

The target of data set [5] is 5-HT7R (Homo sapiens, UniProt P34969). Description: Radioligand binding assay, [3H]-5-CT displacement.
Data set [6] addresses T2, Human Serotonin 5-HT6R (Homo sapiens, UniProt P50406).
T2 construct: host or cells: 1321N1 (frozen recombinant cells)
The experiment in a line: 5-HT6R functional assay, agonistic mode (cAMP, 1321N1 cells). In kind it is cell-based. The protocol: The properties of compounds to inhibit cAMP production induced by a 5-HT6R agonist 5-CT (1000 nM) was evaluated. Compounds were tested in triplicate at eight concentrations (10^−11–10^−4 M). The level of cAMP was measured using frozen recombinant 1321N1 cells expressing the Human Serotonin 5-HT6R (PerkinElmer). Total cAMP was measured using the LANCE cAMP Detection Kit (PerkinElmer), according to the manufacturer’s instructions. For quantification of cAMP levels, 2000 cells/well ([…]) were incubated with a mixture of compounds ([…]) for 30 min at room temperature in a 384-well white opaque microtiter plate. After incubation, the reaction was stopped and cells were lysed by the addition of […] of working solution ([…] ULight-anti-cAMP) for 1 h at room temperature. Time-resolved fluorescence resonance energy transfer (TR-FRET) was detected by an Infinite M1000 Pro (Tecan) using instrument settings from the LANCE cAMP Detection Kit manual. […] The agonistic properties of compounds were determined with an analogous procedure, but without stimulation with 5-CT [10, 36].

Data set [7] can be described thus: PAMPA permeability assay. (In general: The PAMPA barrier holds no transporters, so it reflects passive diffusion.)

T2 sequence (P50406 whole entry): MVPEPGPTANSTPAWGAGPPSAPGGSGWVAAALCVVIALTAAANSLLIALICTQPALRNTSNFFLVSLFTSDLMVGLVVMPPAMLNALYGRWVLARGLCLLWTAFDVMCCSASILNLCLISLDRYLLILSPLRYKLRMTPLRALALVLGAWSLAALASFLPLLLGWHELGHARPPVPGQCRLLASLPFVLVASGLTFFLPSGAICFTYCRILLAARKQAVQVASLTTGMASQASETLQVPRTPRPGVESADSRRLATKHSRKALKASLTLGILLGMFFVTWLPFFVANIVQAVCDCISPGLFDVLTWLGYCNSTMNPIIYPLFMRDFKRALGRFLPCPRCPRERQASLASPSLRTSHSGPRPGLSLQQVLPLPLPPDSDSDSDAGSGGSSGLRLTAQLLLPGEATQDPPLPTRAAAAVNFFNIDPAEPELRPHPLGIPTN
Chain of 5-HT2AR (P28223 whole entry): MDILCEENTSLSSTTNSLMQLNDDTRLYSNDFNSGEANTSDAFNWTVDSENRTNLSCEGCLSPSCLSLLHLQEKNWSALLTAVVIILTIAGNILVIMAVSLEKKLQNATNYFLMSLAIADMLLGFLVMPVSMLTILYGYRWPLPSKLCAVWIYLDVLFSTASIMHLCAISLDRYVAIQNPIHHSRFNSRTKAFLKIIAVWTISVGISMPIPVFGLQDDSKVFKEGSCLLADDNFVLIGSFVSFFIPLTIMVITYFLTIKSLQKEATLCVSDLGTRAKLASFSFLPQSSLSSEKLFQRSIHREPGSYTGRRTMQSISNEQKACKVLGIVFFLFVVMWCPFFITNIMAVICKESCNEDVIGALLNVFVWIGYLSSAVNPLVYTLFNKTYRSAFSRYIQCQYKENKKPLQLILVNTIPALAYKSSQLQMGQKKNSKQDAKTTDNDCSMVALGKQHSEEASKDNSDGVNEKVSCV
Chain of 5-HT7R (P34969 1-432): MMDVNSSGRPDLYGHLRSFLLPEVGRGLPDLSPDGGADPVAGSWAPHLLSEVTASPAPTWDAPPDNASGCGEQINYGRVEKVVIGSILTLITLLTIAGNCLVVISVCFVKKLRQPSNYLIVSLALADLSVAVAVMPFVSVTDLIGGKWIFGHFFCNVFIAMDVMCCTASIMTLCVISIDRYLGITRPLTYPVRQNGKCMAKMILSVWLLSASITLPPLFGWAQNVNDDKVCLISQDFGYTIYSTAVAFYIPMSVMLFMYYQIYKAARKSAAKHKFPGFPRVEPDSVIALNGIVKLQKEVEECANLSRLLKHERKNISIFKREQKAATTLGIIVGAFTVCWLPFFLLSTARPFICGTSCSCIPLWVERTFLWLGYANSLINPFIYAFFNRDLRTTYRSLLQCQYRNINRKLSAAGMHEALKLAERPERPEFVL

Consider `Brc1ccc2c(CNCCc3c[nH]c4ccccc34)c[nH]c2c1` [Compound 15], for which the “Ambulation Scores ± SEM” value in data set [1] (0.5 mg/kg) was found to be 134.9 ± 11.13; in data set [1] (1 mg/kg), 124.7 ± 21.75; in data set [1] (3 mg/kg), 91.8 ± 24.61. Moreover, the “effect on spontaneous locomotor activity in words” value in data set [1] was “did not affect the locomotor activity of mice”. Also, the Ki is 4070 nM in data set [2] (read-out: pKi 5-HT2A (converted)); 977 nM in data set [4] (pKi 5-HT1A, Table 1); 4680 nM in data set [5]. For the same compound, the “reversal of memory impairment induced by MK-801 in NOR test” value in data set [3] (0.5 mg/kg) and in data set [3] (1 mg/kg) was “reversed memory impairment” throughout.
As usually defined, the EC50 is the concentration needed to bring the measured effect to its halfway point. High values mean a less potent agent, low ones a more potent agent. In general, Papp refers to a coefficient for how fast a substance crosses the barrier. Read a low Papp as poor permeation. `Brc1cccc2c(CNCCc3c[nH]c4ccccc34)c[nH]c12` [Compound 18]: the “5-HT6R function in words (agonism)” value in data set [6] is listed as “agonist”. Moreover, in data set [6], the midpoint of the response, the EC50, lay at 77 nM. In addition, the “Ambulation Scores ± SEM” value in data set [1] (0.05 mg/kg) is on record as 113.6 ± 34.00; in data set [1] (0.1 mg/kg), 131.8 ± 19.50; in data set [1] (0.5 mg/kg) it was 116.7 ± 13.23; in data set [1] (1 mg/kg) it was 85.31 ± 15.86; in data set [1] (3 mg/kg), 87.79 ± 20.89. In data set [1], the “effect on spontaneous locomotor activity in words” value is on record as “did not influence the spontaneous locomotor activity of mice”. Moreover, the Ki is 3980 nM in data set [2] (pKi 5-HT2A), 302 nM in data set [4] and 1320 nM in data set [5]. The “PAMPA Pe ± SD” value in data set [7] (200 µM, PBS pH 7.4, 5 h, triplicate) is on record as 3.90 10^−6 cm/s. The compound further yielded a Papp at 5 h, 200 µM in data set [7] (PAMPA, pH 7.4) of 3.9 ± 0.56 ×10⁻⁶ cm/s. Further, the permeability in words entry in data set [7] (compared to caffeine and norfloxacin) is on record as “rather low Pe value but still higher than norfloxacin”. Further, the “reversal of memory impairment induced by MK-801 in NOR test” value in data set [3] (0.1 mg/kg), in data set [3] (0.5 mg/kg) and in data set [3] (1 mg/kg) was “reversed memory impairment” throughout.

For the origin of these results see article PMC8347595, “N-Skatyltryptamines—Dual 5-HT6R/D2R Ligands with Antipsychotic and Procognitive Potential” (Molecules, 2021).
